Data set [1] can be described thus: AUC (0 to 24 hrs) in ICR mouse at 60 mg/kg, IG measured upto 24 hrs by LC-MS/MS analysis. The format is ADME, organism-based. To be noted: in vivo, po.
For the next data set, the system named is LoVo. As to the kind of experiment: Antitumor activity against human LoVo cells xenografted in female BALB/c nude mouse assessed as tumor growth inhibition at 60 mg/kg, IG administered once daily for 27 days. The format is functional. To be noted: po, 648 h, time 27 day, read-out: TGI. (In general: Xenograft models place foreign cells or tissue in a host animal.)

Another data set relates to A-427. Kind of data set: Induction of apoptosis in human A-427 cells assessed as late apoptotic cells at 400 nM measured for 48 hrs by Annexin V/PI double staining based flow cytometry analysis (reference value: 0.21%). It is filed as functional.

Structures are written as SMILES.

In turn, `C=CCn1c(=O)c2cnc(Nc3ccc(N4CCN(C)CC4)cc3)nc2n1-c1cccc(-c2cnccn2)n1` showed an AUC(0-t) at 24 h in data set [1] of 4340 ng·h/mL. Moreover, in the data set with LoVo, the inhibition in vivo at 60 mg/kg is 88%. For the same compound, the Activity in the data set on A-427 was determined as 29.2%.

The AUC(0-t) is the area under the concentration-time curve up to a stated or last time point.

Values taken from ChEMBL document CHEMBL5512688 (J Med Chem, 2024).
